In data set [1] the target is CB one receptor (Homo sapiens, UniProt P21554). The conditions noted are these: fold lower than THC; cited from earlier work.
Data set [2] deals with CB 2 receptor (Homo sapiens, UniProt P34972). Particulars: fold higher than THC; cited from earlier work.
Data set [3] relates to Human keratinocyte. The conditions noted are these: CBD at 1-10 uM; cited from earlier work.
The conditions of data set [4]: cited from earlier work.
Data set [5] deals with T1, 5HT-1a receptor (Homo sapiens, UniProt P08908).
T1 sequence (P08908 1-422): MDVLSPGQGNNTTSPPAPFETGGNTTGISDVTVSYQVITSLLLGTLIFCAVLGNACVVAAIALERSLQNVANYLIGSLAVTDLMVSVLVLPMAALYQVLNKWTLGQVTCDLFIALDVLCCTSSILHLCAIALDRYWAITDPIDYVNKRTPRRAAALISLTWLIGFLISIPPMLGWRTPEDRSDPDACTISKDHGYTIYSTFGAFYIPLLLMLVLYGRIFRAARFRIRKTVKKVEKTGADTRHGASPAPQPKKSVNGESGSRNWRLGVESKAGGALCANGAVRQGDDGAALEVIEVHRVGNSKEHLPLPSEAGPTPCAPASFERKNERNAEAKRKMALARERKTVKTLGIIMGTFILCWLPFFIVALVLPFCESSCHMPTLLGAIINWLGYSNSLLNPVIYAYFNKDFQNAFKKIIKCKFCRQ
Particulars: CBD at >10 uM; cited from earlier work.

Data set [6] concerns neuroprotection. The conditions noted are these: CBD at 1-10 uM; cited from earlier work.
The conditions of data set [7]: plant material in a 110° C. oven, Taschwer; cited from earlier work.
In data set [8] the test system is alpha1 adrenoreceptors and u-opioid receptors. Particulars: CBD at 1-10 uM; cited from earlier work.
For data set [9], the target named is TRPV1 receptor (Homo sapiens, UniProt Q8NER1). The conditions noted are these: CBD at 1-10 uM; cited from earlier work.
TRPV1 receptor, sequence (Q8NER1 whole entry): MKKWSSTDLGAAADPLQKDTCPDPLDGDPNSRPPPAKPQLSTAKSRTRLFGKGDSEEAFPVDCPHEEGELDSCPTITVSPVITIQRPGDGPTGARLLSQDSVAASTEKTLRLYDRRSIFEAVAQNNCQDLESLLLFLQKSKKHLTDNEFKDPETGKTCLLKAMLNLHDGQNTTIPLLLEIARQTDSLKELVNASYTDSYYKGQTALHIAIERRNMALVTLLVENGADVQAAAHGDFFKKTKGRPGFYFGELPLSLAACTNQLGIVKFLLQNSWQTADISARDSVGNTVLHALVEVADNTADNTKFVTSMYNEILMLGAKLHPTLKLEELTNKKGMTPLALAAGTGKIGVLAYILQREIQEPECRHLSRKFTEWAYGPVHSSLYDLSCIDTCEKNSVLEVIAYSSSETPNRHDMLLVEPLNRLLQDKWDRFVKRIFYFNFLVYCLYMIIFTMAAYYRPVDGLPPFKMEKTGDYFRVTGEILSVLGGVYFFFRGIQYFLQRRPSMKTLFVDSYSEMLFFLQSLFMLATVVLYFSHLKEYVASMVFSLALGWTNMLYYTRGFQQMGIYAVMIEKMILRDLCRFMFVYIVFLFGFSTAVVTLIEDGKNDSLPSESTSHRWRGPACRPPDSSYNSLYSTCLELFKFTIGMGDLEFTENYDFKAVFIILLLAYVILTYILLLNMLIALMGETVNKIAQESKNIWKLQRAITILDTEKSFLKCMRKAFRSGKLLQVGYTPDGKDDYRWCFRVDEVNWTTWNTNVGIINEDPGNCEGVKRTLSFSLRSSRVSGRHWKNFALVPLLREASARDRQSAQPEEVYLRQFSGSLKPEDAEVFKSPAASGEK
Data set [10] deals with Membrane. The conditions noted are these: CBD at 1-10 uM; cited from earlier work.
Data set [11] in a line: CBD plasma concentration after dosing. In kind it is in vivo. How it is done: The dosing of CBD for a given range of activity is predictable, Table 1. […] This is a desirable group of activities to select. CBD at one micromolar is equivalent to 0.3 ng per ML and 10 micromolar is equivalent to 3 ng per ML. AUC for CBD ranges widely for different subjects but reportedly averages about 4 ng hour per ML. A single dose of 4 mg would provide an average 0.16 ng/ml concentration over 24 hours. […] Thus in 80 mg dose would provide an average of 10 micromolar over 24 hours. A single dose would produce a single large peak with return to baseline within about 10 hours, again this is variable between individuals. It is known that as frequency of dosing increases the plasma concentration will approach a steady-state or constant value between doses, eliminating the large peaks and valleys associated with infrequent doses. A reasonable dosing schedule might be 25 mg CBD three times daily to achieve 75 mg daily, about 9.4 micromolar average, at the high end of the 1-10 uM range. Similarly a 2.5 mg dose every eight hours would yield an approximately 1 micromolar average concentration.

For data set [12] the following is noted: cited from earlier work. The source holds these as a separate data set.
The conditions of data set [13]: aqueous; cited from earlier work.
For data set [14] the following is noted: for time to full conversion (decarboxylation): thin layer, 400 deg F.
For data set [15] the following is noted: cited from earlier work. This is another data set of the same source.
The test system of data set [16] is pain patients. The conditions noted are these: initial studies in pain patients; cited from earlier work.
For data set [17] the following is noted: 110° C., FIG. 7, cited from earlier work.
The test system of data set [18] is onychomycosis. The conditions noted are these: cited from earlier work.
The conditions of data set [19]: two-13-year-olds in one study; cited from earlier work.
The mark [20] stands for this setting: 100° C. and 110° C., FIG. 6C, 6D, sum decreases significantly.

The structures appear in SMILES notation. Where two headings read alike, the source gives them in different places.

CB 2 receptor, sequence (P34972 whole entry): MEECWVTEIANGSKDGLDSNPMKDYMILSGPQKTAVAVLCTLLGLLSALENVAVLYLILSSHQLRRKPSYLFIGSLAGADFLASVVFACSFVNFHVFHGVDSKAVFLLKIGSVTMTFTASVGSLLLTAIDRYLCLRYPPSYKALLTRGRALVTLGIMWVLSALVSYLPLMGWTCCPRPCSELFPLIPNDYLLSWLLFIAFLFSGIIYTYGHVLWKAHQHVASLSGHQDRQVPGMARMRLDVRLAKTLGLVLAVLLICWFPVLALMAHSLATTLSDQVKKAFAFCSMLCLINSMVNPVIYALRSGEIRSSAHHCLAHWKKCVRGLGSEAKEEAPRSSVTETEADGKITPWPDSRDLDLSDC
CB one receptor, sequence (P21554 whole entry): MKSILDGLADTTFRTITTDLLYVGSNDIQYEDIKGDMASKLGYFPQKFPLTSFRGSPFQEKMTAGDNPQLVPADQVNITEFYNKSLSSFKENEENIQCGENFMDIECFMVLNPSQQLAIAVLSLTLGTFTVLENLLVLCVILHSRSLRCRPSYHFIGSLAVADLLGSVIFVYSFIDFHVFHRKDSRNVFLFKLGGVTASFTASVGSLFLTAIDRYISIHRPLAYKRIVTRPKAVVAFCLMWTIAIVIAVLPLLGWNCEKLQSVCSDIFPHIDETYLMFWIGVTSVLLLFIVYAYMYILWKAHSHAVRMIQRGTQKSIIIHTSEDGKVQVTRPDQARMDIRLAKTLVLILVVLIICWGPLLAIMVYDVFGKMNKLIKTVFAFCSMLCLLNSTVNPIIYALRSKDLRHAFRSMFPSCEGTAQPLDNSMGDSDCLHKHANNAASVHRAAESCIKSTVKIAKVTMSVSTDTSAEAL

Consider `CCCCCc1cc(O)c2c(c1)OC(C)(C)c1ccc(C)cc1-2` [CBN], for which, in data set [1], the “affinity for CB one receptor, lower than THC” value is 2 fold. Moreover, in data set [2], the “affinity for CB 2 receptor, higher than THC” value is recorded as 3 fold.

As to `C=C(C)[C@@H]1CCC(C)=C[C@H]1c1c(O)cc(CCCCC)cc1O` [CBD, cannabidiol], the “action induced by CBD: Decreased human keratinocyte proliferation” value in data set [3] was “Human keratinocyte proliferation”. Besides, the “degradation judged from sum of CBDA and CBD concentration” value in data set [4] (80° C. and 90° C., FIG. 6A, 6B) is on record as “no degradation”; in data set [4] (setting [20]), “loss”. The “time to peak CBD” value in data set [4] (110° C., cannabis oil in an open vial in an oven, FIG. 6D) was 90 min; in data set [7], 135 min. Besides, the “loss of converted CBD compared to the closed reactor at the same temperature” value in data set [4] (120° open reactor, FIG. 6E) was 45-55%. Besides, the “action induced by CBD: Ativated 5HT-1a receptor” value in data set [5] was 5HT-1a receptor. Moreover, the “action induced by CBD: Increased or activated signs of neuroprotection” value in data set [6] was “Signs of neuroprotection”. The “action induced by CBD: Decreased activation of alpha1 adrenoreceptors and u-opioid receptors” value in data set [8] was “Activation of alpha1 adrenoreceptors and u-opioid”. Besides, in [9], the “action induced by CBD: Increased or activated TRPV1 receptor” value is on record as “TRPV1 receptor”. Also, in data set [10], the “action induced by CBD: Increased or activated Membrane stability” value is reported as “Membrane stability”. Also, the average concentration result in data set [11] (2.5 mg dose every eight hours) is “approximately 1 micromolar”; in data set [11] (25 mg CBD three times daily, 75 mg daily), “about 9.4 micromolar”. Further, the “average concentration over 24 hours” value was determined as 10 µM in data set [11] (80 mg dose), 0.32 ng per ML in data set [11] (8 milligrams dose) and 0.16 ng/mL in [11] (single dose of 4 mg). In addition, the “average concentration over 24 hours, as molarity” value in data set [11] (8 milligrams dose) is recorded as “about one micromolar”. Further, the “AUC for CBD, average” value in [12] (ranges widely for different subjects) is “about 4 ng hour per ML”. For the same compound, the “return to baseline after a single dose” value in data set [12] (single dose, variable between individuals) was no more than 10 h.

As to `CCCCCc1cc(O)c2c(c1)OC(C)(C)[C@@H]1CCC(C)=C[C@@H]21` [THC], the “concentration at which THC saturates in cannabis tea” value in data set [13] is “about 10 mg/L”. In addition, the “loss of total THC (THC A+ THC) from the starting condition” value in data set [4] (120° C. closed reactor) is recorded as “approximately 10%”. The “loss of THC relative to 120° C. closed reactor” value in data set [4] (open reactor, 100° C. (212° F.), FIG. 6C) is recorded as “about 28%”. In data set [4] (open reactor, 110° C. (230° F.), FIG. 6d), the “loss compared to that maximally achieved at 120° C. in the closed reactor” value is reported as “about 28%”. Also, the THC remaining result in [14] (20 min) was “only a trace”. For the same compound, the “anti-inflammatory activity relative to hydrocortisone” value in data set [15] (relative to hydrocortisone) is reported as “two times”. Also, in data set [15] (times the activity of aspirin), the “anti-inflammatory activity relative to aspirin” value was 20 times. Moreover, in data set [16], the “analgesic effect in pain patients” value is listed as “provided analgesic effects”.

As to `C=C(C)[C@@H]1CCC(C)=C[C@H]1c1c(O)cc(CCCCC)c(C(=O)O)c1O` [CBDA], the “degradation judged from sum of CBDA and CBD concentration” value in data set [4] (80° C. and 90° C., FIG. 6A, 6B) is on record as “no degradation”; in data set [4] (setting [20]) it was “loss”. For the same compound, the “loss of CBDA” value in data set [4] (120° C. open reactor, FIG. 6E, incomplete conversion to CBD) is reported as “rapid loss”. In addition, in [14], the “time to full conversion (decarboxylation)” value is on record as “fully converted in under a minute”.

As to `CCCCCc1cc(O)c(C/C=C(\C)CCC=C(C)C)c(O)c1C(=O)O` [CBGA], the “consumption of CBGA” value in data set [17] is on record as “complete consumption”.

Turning to `C=C1CC[C@H]2O[C@]2(C)CC[C@@H]2[C@@H]1CC2(C)C` [Caryophyllene Oxide], the “time in which effective in onychomycosis” value in data set [18] (at 8% concentration) is given as 15 days. The “clinical onychomycosis efficacy versus reference drugs” value in data set [18] (in vivo) is “efficacy similar to cyclopiroxolamine and sulconazole”.

Turning to `CCCCCc1cc(O)c2c(c1)OC(C)(C)[C@@H]1CC=C(C)C[C@@H]21` [Delta 8 THC], in data set [19], the psychoactive effect entry is listed as “no psychoactive effect”.

On to `CCCCCc1cc2c(c(O)c1C(=O)O)[C@@H]1C=C(C)CC[C@H]1C(C)(C)O2` [THCA], for which the “time to full conversion (decarboxylation)” value in [14] is given as “fully converted in under a minute”.

For the compound `CCCCCc1cc(O)c(C/C=C(\C)CCC=C(C)C)c(O)c1` [CBG], the “loss of total CBG” value in data set [17] (in the time decarboxylation is maximized) is reported as 50%.

Source of the values: patent US11254633B2, “Cannabis thin layer decarboxylation” (priority 2018, dated 2022).
